Measured values taken from ChEMBL document CHEMBL3885881, “DrugMatrix”.

Species: Rattus norvegicus
Experiment: DrugMatrix - Regimen: Daily Repeat
Assay type: toxicity, organism-based, Sprague-Dawley
Parameters: regimen Daily Repeat, gender Male, age 6-8 weeks
Conditions: in vivo, po, route oral GAVAGE, vehicle .5 % CMC; for BASOPHIL / EOSINOPHIL / ERYTHROCYTE COUNT / HEMATOCRIT / HEMOGLOBIN / LEUKOCYTE COUNT / LYMPHOCYTE / MEAN CORPUSCULAR HEMOGLOBIN / MEAN CORPUSCULAR HEMOGLOBIN CONCENTRATION / MEAN CORPUSCULAR VOLUME / MONOCYTE / NEUTROPHIL / PLATELET COUNT: tissue Blood; for ALANINE AMINOTRANSFERASE / ALBUMIN / ALKALINE PHOSPHATASE / ASPARTATE AMINOTRANSFERASE / BLOOD UREA NITROGEN / CHLORIDE / CHOLESTEROL / CREATINE PHOSPHOKINASE / CREATININE / GLUCOSE / PHOSPHORUS / POTASSIUM / SODIUM / TOTAL BILIRUBIN / TOTAL PROTEIN: tissue Plasma
[1] = 0 mg/kg, 72 h, dose level Control, time 3 day
[2] = 0 mg/kg, 120 h, dose level Control, time 5 day
[3] = 300 mg/kg, 72 h, dose level Low, time 3 day
[4] = 300 mg/kg, 120 h, dose level Low, time 5 day
[5] = 1500 mg/kg, 72 h, dose level High, time 3 day
[6] = 1500 mg/kg, 120 h, dose level High, time 5 day

O=C1CCc2cc(OCCCCc3nnnn3C3CCCCC3)ccc2N1 [CILOSTAZOL]
BASOPHIL [1]: 0.68%
EOSINOPHIL [1]: 0.46%
ERYTHROCYTE COUNT [1]: 7.15 x10E6/uL
HEMATOCRIT [1]: 45.44%
HEMOGLOBIN [1]: 14.1 G/DL
LEUKOCYTE COUNT [1]: 9.78 x10E3/uL
LYMPHOCYTE [1]: 84.44%
MEAN CORPUSCULAR HEMOGLOBIN [1]: 19.72 pg
MEAN CORPUSCULAR HEMOGLOBIN CONCENTRATION [1]: 31 G/DL
MEAN CORPUSCULAR VOLUME [1]: 63.66 fL
MONOCYTE [1]: 2.14%
NEUTROPHIL [1]: 11.16%
PLATELET COUNT [1]: 1378.2 x10E3/uL
ALANINE AMINOTRANSFERASE [1]: 42.33 u/L
ALBUMIN [1]: 3.8 G/DL
ALKALINE PHOSPHATASE [1]: 388.17 u/L
ASPARTATE AMINOTRANSFERASE [1]: 68 u/L
BLOOD UREA NITROGEN [1]: 16.17 mg/dL
CHLORIDE [1]: 96.67 MEQ/L
CHOLESTEROL [1]: 71 mg/dL
CREATINE PHOSPHOKINASE [1]: 156.17 u/L
CREATININE [1]: 0.57 mg/dL
GLUCOSE [1]: 193.67 mg/dL
PHOSPHORUS [1]: 11.43 mg/dL
POTASSIUM [1]: 7 MEQ/L
SODIUM [1]: 140.33 MEQ/L
TOTAL BILIRUBIN [1]: 0.48 mg/dL
TOTAL PROTEIN [1]: 6.8 G/DL
BASOPHIL [2]: 1.47%
EOSINOPHIL [2]: 1%
ERYTHROCYTE COUNT [2]: 7.12 x10E6/uL
HEMATOCRIT [2]: 45.47%
HEMOGLOBIN [2]: 14.1 G/DL
LEUKOCYTE COUNT [2]: 11.38 x10E3/uL
LYMPHOCYTE [2]: 82.57%
MEAN CORPUSCULAR HEMOGLOBIN [2]: 19.82 pg
MEAN CORPUSCULAR HEMOGLOBIN CONCENTRATION [2]: 31.02 G/DL
MEAN CORPUSCULAR VOLUME [2]: 63.88 fL
MONOCYTE [2]: 2.2%
NEUTROPHIL [2]: 11.97%
PLATELET COUNT [2]: 1267 x10E3/uL
ALANINE AMINOTRANSFERASE [2]: 38 u/L
ALBUMIN [2]: 3.72 G/DL
ALKALINE PHOSPHATASE [2]: 391 u/L
ASPARTATE AMINOTRANSFERASE [2]: 65.83 u/L
BLOOD UREA NITROGEN [2]: 14.17 mg/dL
CHLORIDE [2]: 107.67 MEQ/L
CHOLESTEROL [2]: 61 mg/dL
CREATINE PHOSPHOKINASE [2]: 148.33 u/L
CREATININE [2]: 0.57 mg/dL
GLUCOSE [2]: 177.17 mg/dL
PHOSPHORUS [2]: 12.07 mg/dL
POTASSIUM [2]: 7.2 MEQ/L
SODIUM [2]: 151.5 MEQ/L
TOTAL BILIRUBIN [2]: 0.58 mg/dL
TOTAL PROTEIN [2]: 6.72 G/DL
BASOPHIL [3]: 0.4%
EOSINOPHIL [3]: 0.5%
ERYTHROCYTE COUNT [3]: 6.67 x10E6/uL
HEMATOCRIT [3]: 43%
HEMOGLOBIN [3]: 13.6 G/DL
LEUKOCYTE COUNT [3]: 12.31 x10E3/uL
LYMPHOCYTE [3]: 81.4%
MEAN CORPUSCULAR HEMOGLOBIN [3]: 20.4 pg
MEAN CORPUSCULAR HEMOGLOBIN CONCENTRATION [3]: 31.6 G/DL
MEAN CORPUSCULAR VOLUME [3]: 64.55 fL
MONOCYTE [3]: 2.4%
NEUTROPHIL [3]: 14%
PLATELET COUNT [3]: 1378 x10E3/uL
ALANINE AMINOTRANSFERASE [3]: 40.67 u/L
ALBUMIN [3]: 3.6 G/DL
ALKALINE PHOSPHATASE [3]: 331.33 u/L
ASPARTATE AMINOTRANSFERASE [3]: 59 u/L
BLOOD UREA NITROGEN [3]: 14.67 mg/dL
CHLORIDE [3]: 96 MEQ/L
CHOLESTEROL [3]: 75.33 mg/dL
CREATINE PHOSPHOKINASE [3]: 120.33 u/L
CREATININE [3]: 0.53 mg/dL
GLUCOSE [3]: 178.33 mg/dL
PHOSPHORUS [3]: 11.33 mg/dL
POTASSIUM [3]: 6.4 MEQ/L
SODIUM [3]: 141 MEQ/L
TOTAL BILIRUBIN [3]: 0.33 mg/dL
TOTAL PROTEIN [3]: 6.43 G/DL
BASOPHIL [4]: 1.17%
EOSINOPHIL [4]: 0.37%
ERYTHROCYTE COUNT [4]: 7.17 x10E6/uL
HEMATOCRIT [4]: 46.5%
HEMOGLOBIN [4]: 14.43 G/DL
LEUKOCYTE COUNT [4]: 13.79 x10E3/uL
LYMPHOCYTE [4]: 85.57%
MEAN CORPUSCULAR HEMOGLOBIN [4]: 20.2 pg
MEAN CORPUSCULAR HEMOGLOBIN CONCENTRATION [4]: 31.07 G/DL
MEAN CORPUSCULAR VOLUME [4]: 64.9 fL
MONOCYTE [4]: 2.3%
NEUTROPHIL [4]: 9.6%
PLATELET COUNT [4]: 1545 x10E3/uL
ALANINE AMINOTRANSFERASE [4]: 41 u/L
ALBUMIN [4]: 3.77 G/DL
ALKALINE PHOSPHATASE [4]: 365.67 u/L
ASPARTATE AMINOTRANSFERASE [4]: 63 u/L
BLOOD UREA NITROGEN [4]: 14.67 mg/dL
CHLORIDE [4]: 106.67 MEQ/L
CHOLESTEROL [4]: 67.33 mg/dL
CREATINE PHOSPHOKINASE [4]: 135 u/L
CREATININE [4]: 0.67 mg/dL
GLUCOSE [4]: 167 mg/dL
PHOSPHORUS [4]: 12.53 mg/dL
POTASSIUM [4]: 7.53 MEQ/L
SODIUM [4]: 151.33 MEQ/L
TOTAL BILIRUBIN [4]: 0.43 mg/dL
TOTAL PROTEIN [4]: 6.77 G/DL
BASOPHIL [5]: 0.53%
EOSINOPHIL [5]: 0.27%
ERYTHROCYTE COUNT [5]: 6.95 x10E6/uL
HEMATOCRIT [5]: 45.23%
HEMOGLOBIN [5]: 14.2 G/DL
LEUKOCYTE COUNT [5]: 13.97 x10E3/uL
LYMPHOCYTE [5]: 82.9%
MEAN CORPUSCULAR HEMOGLOBIN [5]: 20.43 pg
MEAN CORPUSCULAR HEMOGLOBIN CONCENTRATION [5]: 31.4 G/DL
MEAN CORPUSCULAR VOLUME [5]: 65.13 fL
MONOCYTE [5]: 2.43%
NEUTROPHIL [5]: 13.1%
PLATELET COUNT [5]: 1348.33 x10E3/uL
ALANINE AMINOTRANSFERASE [5]: 34.67 u/L
ALBUMIN [5]: 3.77 G/DL
ALKALINE PHOSPHATASE [5]: 340.33 u/L
ASPARTATE AMINOTRANSFERASE [5]: 60.33 u/L
BLOOD UREA NITROGEN [5]: 12 mg/dL
CHLORIDE [5]: 95 MEQ/L
CHOLESTEROL [5]: 65.33 mg/dL
CREATINE PHOSPHOKINASE [5]: 141 u/L
CREATININE [5]: 0.5 mg/dL
GLUCOSE [5]: 178.33 mg/dL
PHOSPHORUS [5]: 11.9 mg/dL
POTASSIUM [5]: 6.77 MEQ/L
SODIUM [5]: 140.33 MEQ/L
TOTAL BILIRUBIN [5]: 0.43 mg/dL
TOTAL PROTEIN [5]: 6.67 G/DL
BASOPHIL [6]: 0.83%
EOSINOPHIL [6]: 0.37%
ERYTHROCYTE COUNT [6]: 7 x10E6/uL
HEMATOCRIT [6]: 45.1%
HEMOGLOBIN [6]: 13.87 G/DL
LEUKOCYTE COUNT [6]: 10.98 x10E3/uL
LYMPHOCYTE [6]: 80.03%
MEAN CORPUSCULAR HEMOGLOBIN [6]: 19.8 pg
MEAN CORPUSCULAR HEMOGLOBIN CONCENTRATION [6]: 30.67 G/DL
MEAN CORPUSCULAR VOLUME [6]: 64.47 fL
MONOCYTE [6]: 2.53%
NEUTROPHIL [6]: 15.27%
PLATELET COUNT [6]: 1161 x10E3/uL
ALANINE AMINOTRANSFERASE [6]: 45 u/L
ALBUMIN [6]: 3.67 G/DL
ALKALINE PHOSPHATASE [6]: 377 u/L
ASPARTATE AMINOTRANSFERASE [6]: 66.33 u/L
BLOOD UREA NITROGEN [6]: 12 mg/dL
CHLORIDE [6]: 106.67 MEQ/L
CHOLESTEROL [6]: 66.67 mg/dL
CREATINE PHOSPHOKINASE [6]: 130 u/L
CREATININE [6]: 0.6 mg/dL
GLUCOSE [6]: 184.33 mg/dL
PHOSPHORUS [6]: 12.83 mg/dL
POTASSIUM [6]: 7.27 MEQ/L
SODIUM [6]: 151.33 MEQ/L
TOTAL BILIRUBIN [6]: 0.4 mg/dL
TOTAL PROTEIN [6]: 6.6 G/DL
